Assay results from PubChem BioAssay AID248 (DTP/NCI, 2004).
“And” between values parts separate entries of the source, which are not always exact repeats. Equal entries are not always repeated. Inconclusive results and toxic doses are left out. No stated cut-off is given here; in the data, active means T/C of 150% or more; inactive means T/C below 125%.

System: L1210 leukemia ip in BDF1 mice, survival T/C
Assay: NCI In Vivo Anticancer Drug Screen. Data for tumor model L1210 Leukemia (intraperitoneal) in B6D2F1 (BDF1) mice
Details: endpoint: mean survival time, higher = longer survival
How it was run: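 Tumor cells were implanted, animals were treated, and survival was followed. The result divides the treated measurement by the vehicle-control measurement.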

[1] = dose: 100.0 mg/kg/injection, schedule: Q01DX009 (ip), vehicle: Klucel (hydroxypropylcellulose) (HPC)
[2] = dose: 100.0 mg/kg/injection, schedule: Q04DX003 (ip), vehicle: Klucel (hydroxypropylcellulose) (HPC)
[3] = dose: 200.0 mg/kg/injection, schedule: Q01DX009 (ip), vehicle: Klucel (hydroxypropylcellulose) (HPC)
[4] = dose: 200.0 mg/kg/injection, schedule: Q04DX003 (ip), vehicle: Klucel (hydroxypropylcellulose) (HPC)
[5] = dose: 400.0 mg/kg/injection, schedule: Q01DX009 (ip), vehicle: Klucel (hydroxypropylcellulose) (HPC)
[6] = dose: 400.0 mg/kg/injection, schedule: Q04DX003 (ip), vehicle: Klucel (hydroxypropylcellulose) (HPC)
[7] = dose: 100.0 mg/kg/injection, schedule: Q01DX001 (ip), vehicle: carboxymethylcellulose (CMC)

Measured: T/C

Clc1ccc(C=Nc2ccc3c(c2)Cc2ccccc2-3)cc1
inactive: [1] 90 % of control | [2] 96 % of control | [3] 93 % of control | [4] 102 % of control | [5] 92 % of control | [6] 91 % of control

COC(=O)CS(=O)(=O)C(C)(C)C(=O)c1ccccc1
inactive: dose: 37.5 mg/kg/injection, schedule: Q01DX009 (ip), vehicle: saline 96 % of control | dose: 75.0 mg/kg/injection, schedule: Q01DX009 (ip), vehicle: saline 92 % of control | dose: 150.0 mg/kg/injection, schedule: Q01DX009 (ip), vehicle: saline 100 % of control | dose: 300.0 mg/kg/injection, schedule: Q01DX009 (ip), vehicle: saline 94 % of control

O=C(NNC(=O)c1ccc([N+](=O)[O-])cc1)c1ccccc1
inactive: [1] 96 % of control | [2] 105 % of control | [3] 101 % of control | [4] 103 % of control | [5] 94 % of control | [6] 100 % of control

C#CCCCCC#[C][Hg][C]#CCCCCC#C
inactive: dose: 75.0 mg/kg/injection, schedule: Q01DX001 (ip), vehicle: saline 94 % of control

CCCCC(CCC)(CCN)CCCC
inactive: dose: 1.0 mg/kg/injection, schedule: Q01DX009 (ip), vehicle: Klucel (hydroxypropylcellulose) (HPC) 100 % of control | dose: 2.0 mg/kg/injection, schedule: Q01DX009 (ip), vehicle: Klucel (hydroxypropylcellulose) (HPC) 100 % of control | dose: 2.0 mg/kg/injection, schedule: Q04DX003 (ip), vehicle: Klucel (hydroxypropylcellulose) (HPC) 98 % of control | dose: 4.0 mg/kg/injection, schedule: Q01DX009 (ip), vehicle: Klucel (hydroxypropylcellulose) (HPC) 101 % of control | dose: 4.0 mg/kg/injection, schedule: Q04DX003 (ip), vehicle: Klucel (hydroxypropylcellulose) (HPC) 98 % of control | dose: 8.0 mg/kg/injection, schedule: Q01DX009 (ip), vehicle: Klucel (hydroxypropylcellulose) (HPC) 100 % of control | dose: 8.0 mg/kg/injection, schedule: Q04DX003 (ip), vehicle: Klucel (hydroxypropylcellulose) (HPC) 93 % of control | dose: 16.0 mg/kg/injection, schedule: Q04DX003 (ip), vehicle: Klucel (hydroxypropylcellulose) (HPC) 96 % of control | dose: 25.0 mg/kg/injection, schedule: Q01DX001 (ip), vehicle: carboxymethylcellulose (CMC) 95 % of control | [7] 93 % of control

O=C(c1ccccc1)C(Cl)C(O)(C(F)(F)F)C(F)(F)F (configuration not stated)
inactive: dose: 50.0 mg/kg/injection, schedule: Q01DX009 (ip), vehicle: saline with Tween-80 96 % of control | dose: 100.0 mg/kg/injection, schedule: Q01DX009 (ip), vehicle: saline with Tween-80 92 % of control | dose: 200.0 mg/kg/injection, schedule: Q01DX009 (ip), vehicle: saline with Tween-80 108 % of control

CCCCN=C(C(=O)NCCCC)c1ccccc1NC(C)=O
inactive: [1] 97 % of control | [3] 86 % of control

CN(C)CC/C=C1\c2ccccc2Sc2ccc(C(F)(F)F)cc21
inactive: dose: 0.78 mg/kg/injection, schedule: Q01DX009 (ip), vehicle: saline 97 % of control | dose: 0.78 mg/kg/injection, schedule: Q04DX003 (ip), vehicle: saline 102 % of control | dose: 1.56 mg/kg/injection, schedule: Q01DX009 (ip), vehicle: saline 105 % of control | dose: 1.56 mg/kg/injection, schedule: Q04DX003 (ip), vehicle: saline 105 % of control | dose: 3.12 mg/kg/injection, schedule: Q01DX009 (ip), vehicle: saline 115 % of control | dose: 3.12 mg/kg/injection, schedule: Q04DX003 (ip), vehicle: saline 100 % of control | dose: 6.0 mg/kg/injection, schedule: Q01DX Z (ip), vehicle: carboxymethylcellulose (CMC) 111 % of control | dose: 6.25 mg/kg/injection, schedule: Q04DX003 (ip), vehicle: saline 107 % of control | dose: 9.0 mg/kg/injection, schedule: Q01DX Z (ip), vehicle: carboxymethylcellulose (CMC) 103 % of control and 108 % of control | dose: 9.0 mg/kg/injection, schedule: Q01DX Z (ip), vehicle: other 110 % of control | dose: 12.5 mg/kg/injection, schedule: Q01DX009 (ip), vehicle: saline 122 % of control | dose: 12.5 mg/kg/injection, schedule: Q04DX003 (ip), vehicle: saline 105 % of control | dose: 14.0 mg/kg/injection, schedule: Q01DX Z (ip), vehicle: carboxymethylcellulose (CMC) 100 % of control and 111 % of control | dose: 17.5 mg/kg/injection, schedule: Q01DX001 (ip), vehicle: saline 114 % of control | dose: 21.0 mg/kg/injection, schedule: Q01DX Z (ip), vehicle: carboxymethylcellulose (CMC) 103 % of control | dose: 21.0 mg/kg/injection, schedule: Q01DX Z (ip), vehicle: other 110 % of control | dose: 31.0 mg/kg/injection, schedule: Q01DX Z (ip), vehicle: carboxymethylcellulose (CMC) 110 % of control | dose: 35.0 mg/kg/injection, schedule: Q01DX001 (ip), vehicle: saline 104 % of control | dose: 50.0 mg/kg/injection, schedule: Q04DX003 (ip), vehicle: saline 120 % of control | dose: 70.0 mg/kg/injection, schedule: Q01DX001 (ip), vehicle: saline 108 % of control | dose: 140.0 mg/kg/injection, schedule: Q01DX001 (ip), vehicle: saline 123 % of control

CCOC(=O)c1nc[nH]c1N=[N+]=[N-]
inactive: dose: 100.0 mg/kg/injection, schedule: Q01DX001 (ip), vehicle: other 106 % of control | dose: 200.0 mg/kg/injection, schedule: Q01DX001 (ip), vehicle: other 97 % of control | dose: 400.0 mg/kg/injection, schedule: Q01DX001 (ip), vehicle: other 95 % of control

CCC(CC)C(O)C(C)C(C)O (configuration not stated)
inactive: dose: 100.0 mg/kg/injection, schedule: Q04DX003 (ip), vehicle: saline with Tween-80 97 % of control | dose: 200.0 mg/kg/injection, schedule: Q04DX003 (ip), vehicle: saline with Tween-80 113 % of control | dose: 400.0 mg/kg/injection, schedule: Q04DX003 (ip), vehicle: saline with Tween-80 97 % of control

OB(Cc1ccccc1)c1ccccc1
inactive: dose: 100.0 mg/kg/injection, schedule: Q01DX001 (ip), vehicle: saline 97 % of control | dose: 200.0 mg/kg/injection, schedule: Q01DX001 (ip), vehicle: saline 89 % of control | dose: 400.0 mg/kg/injection, schedule: Q01DX001 (ip), vehicle: saline 97 % of control

CN(/N=N/N(C)c1ccccc1)c1ccccc1
inactive: dose: 6.3 mg/kg/injection, schedule: Q01DX Z (sc), vehicle: carboxymethylcellulose (CMC) 102 % of control | dose: 12.5 mg/kg/injection, schedule: Q01DX Z (sc), vehicle: carboxymethylcellulose (CMC) 113 % of control | dose: 25.0 mg/kg/injection, schedule: Q01DX Z (sc), vehicle: carboxymethylcellulose (CMC) 105 % of control and 106 % of control | dose: 50.0 mg/kg/injection, schedule: Q01DX Z (sc), vehicle: carboxymethylcellulose (CMC) 102 % of control | [7] 102 % of control | dose: 100.0 mg/kg/injection, schedule: Q01DX Z (sc), vehicle: carboxymethylcellulose (CMC) 104 % of control | dose: 150.0 mg/kg/injection, schedule: Q01DX Z (sc), vehicle: carboxymethylcellulose (CMC) 91 % of control | dose: 200.0 mg/kg/injection, schedule: Q01DX001 (ip), vehicle: carboxymethylcellulose (CMC) 102 % of control | dose: 300.0 mg/kg/injection, schedule: Q01DX Z (sc), vehicle: carboxymethylcellulose (CMC) 100 % of control | dose: 400.0 mg/kg/injection, schedule: Q01DX001 (ip), vehicle: carboxymethylcellulose (CMC) 98 % of control
